Data: patent US20260250337A1, “HYBRID ANTIMICROBIAL PEPTIDES” (UNIVERSIDADE FEDERAL DO ABC, priority 2023, published 2026)
“Also recorded” adds a separate entry of the source. No end group written: not given here.

Tests used:
[1] = system: Plasmodium gallinaceum sporozoites; assay: Antiplasmodial activity, fluorescence microscopy; assay type: cell-based; settings: for P. gallinaceum (% sporozoites at 0.8 μmol L^−1): fluorescent (propidium iodide stained) sporozoites, 37° C., 1 h; for antiplasmodial activity: P. gallinaceum sporozoites, concentration range tested
Procedure: Method. The activity of the peptides against Plasmodium gallinaceum sporozoites was determined by fluorescence microscopy, as previously described by Silva et. al.^83. Briefly, 9,000 sporozoites were isolated from the glands of infected Aedes aegypti mosquitos and incubated with serially diluted peptides (ranging from 0.1 to 1.6 μmol L^−1) at 37° C. for 1 h. A PBS solution and the surfactant digitonin^84, 85 were used as negative and positive controls, respectively. Propidium iodide was used to stain dead cells. Assays were executed using fluorescence microscopy. Three biological repeats each with three different mosquito batches (n=9) were used.

C. albicans MDM8 = assay: Liquid growth inhibition assay, MIC (antifungal); assay type: cell-based, Candida albicans; settings: 37° C., 24 h
Procedure: (§1) Initially, the antimicrobial activity was determined by liquid growth inhibition assays, as previously described by Pedron et al.^62. Briefly, Peptone Broth and Potato Dextrose Broth (Invitrogen) were used for antibacterial and antifungal assays, respectively. Two-fold serial dilutions of peptides (0.09-50 μmol L^−1) and microorganisms (Serratia marcescens ATCC 4112, Enterobacter cloacae β-12, Micrococcus luteus A270, Bacillus megaterium ATCC 10778, Bacillus subtilis ATCC 6633, Candida albicans MDM8, and Candida tropicalis IOC 4560) were incubated at 37° C. for 18 h (for bacteria) or 24 h (for fungi), and microbial growth was assessed by absorbance measurements at 595 nm. Experiments were performed in three biological repeats.

S. marcescens ATCC 4112 = assay: Liquid growth inhibition assay, MIC; assay type: cell-based, Serratia marcescens; settings: 37° C., 18 h
Procedure: as §1

E. cloacae β-12 = assay: Liquid growth inhibition assay, MIC; assay type: cell-based, Enterobacter cloacae; settings: 37° C., 18 h
Procedure: as §1

human erythrocytes = assay: Hemolytic activity assay; assay type: cell-based; settings: for Hemolytic activity, concentration of peptide needed to kill 10% of red blood cells / MHC: human erythrocytes, 1 h; for MHC: room temperature, concentration with approximately 0% of hemolytic activity
Procedure: Method. Assays against freshly collected human erythrocytes were performed following protocols described by Pedron et al. 62. Briefly, peptide aliquots at concentrations ranging from 0.1 to 100 μmol L−1 were incubated with a suspension of erythrocytes at room temperature for 1 h. The samples were then centrifuged, and the absorbance of the supernatant was measured at 405 nm. The MHC (maximal non-hemolytic concentration) was determined as the maximal concentration at which 100% of the erythrocytes were viable. The surfactant SDS and PBS buffer were used as positive88, 89 and negative controls, respectively. Sodium heparin was used as an anticoagulant when collecting human blood. Three biological repeats were performed.

[2] = Circular dichroism, helical fraction (Lifson-Roig); assay type: physicochemical; settings: peptide 50 μmol L^−1; for Helical fraction (fH) PBS: PBS 10 mmol L^−1, pH 7.4; for Helical fraction (fH) POPC: POPC 10 mmol L^−1; for Helical fraction (fH) POPC:DOPE: POPC:DOPE 3:1, mol:mol; for Helical fraction (fH) POPC:DOPE / Helical fraction (fH) POPC:POPG: 10 mmol L^−1; for Helical fraction (fH) POPC:POPG: POPC:POPG 3:1, mol:mol; for Helical fraction (fH) SDS: SDS 20 mmol L^−1 in water; for Helical fraction (fH) TFE/Water: TFE in water (3:2, v:v)
Procedure: Method. Circular dichroism (CD) assays were performed with a Spectropolarimeter Jasco Mod. J-815 (JascoCorp). CD spectra were obtained in Far-UV (195-260 nm), and analyzed in the following solutions: water, 2,2,2-trifluoroethanol (TFE) in water (3:2, v:v), phosphate buffer saline (PBS, 10 mmol L^−1, pH 7.4), sodium dodecyl sulfate (SDS 20 mmol L^−1) in water, palmitoyloleoylphosphatidylcholine (POPC; 10 mmol L^−1), palmitoyloleoylphosphatidylcholine:dioleylphosphatidylethanolamine (POPC:DOPE; 3:1, mol:mol, 10 mmol L^−1) and palmitoyloleoylphosphatidylcholine:palmitoyloleoylphosphatidylglycerol (POPC:POPG; 3:1, mol:mol, 10 mmol L^−1) at a peptide concentration of 50 μmol L^−1. These experiments were performed as described in detail by Pedron et al.^62.

C. tropicalis IOC 4560 = assay: Liquid growth inhibition assay, MIC (antifungal); assay type: cell-based, Candida tropicalis; settings: 37° C., 24 h
Procedure: as §1

B. megaterium ATCC 10778 = assay: Liquid growth inhibition assay, MIC; assay type: cell-based, Bacillus megaterium; settings: 37° C., 18 h
Procedure: as §1

bacterial strains = assay: Antimicrobial activity over the panel of strains; assay type: cell-based; settings: range of concentrations tested
Procedure: as §1
Method. The minimal inhibitory concentration (MIC) against the ESKAPE pathogens was determined using the broth microdilution method^81, 82 in Luria-Bertani (LB) medium. The MIC value was defined as the lowest concentration of peptide at which no microbial growth was observed. A. baumannii ATCC19606, E. coli ATCC11775, E. coli AIC221, E. coli AIC222, K. pneumoniae ATCC13883, S. aureus ATCC12600 P. aeruginosa PAO1, and P. aeruginosa PA14 were incubated on agar plates, and after 24 h, three isolated colonies were inoculated to 5 mL of Luria-Bertani (LB) broth and maintained at 37° C. overnight with shaking. Peptides were then added to 96-well polystyrene microtiter plates at concentrations ranging from 0 to 128 μmol L^−1, and 5×10^5 CFU mL^−1 of each bacterium was inoculated in each well. The plates were incubated at 37° C. for 24 h. Bacterial growth was measured using a microplate reader at 610 nm. Three independent replicates were performed.

[3] = system: S. epidermidis ATCC 12228; assay: Liquid growth inhibition assay, MIC; assay type: cell-based; settings: 37° C., 18 h
M. luteus A270 = assay: Liquid growth inhibition assay, MIC; assay type: cell-based, Micrococcus luteus; settings: 37° C., 18 h
Procedure: as §1

[4] = Resistance to degradation in fetal bovine serum; assay type: in vitro ADME; settings: fetal bovine serum 25% in water, 37° C.; for remaining at 0.5 h: 30 min, read-out: remaining peptide, 30 min; for remaining at 1 h: read-out: remaining peptide, 1 h; for remaining at 2 h: read-out: remaining peptide, 2 h; for remaining at 4 h: read-out: remaining peptide, 4 h
Procedure: The resistance to proteolytic degradation of the hybrid peptides was assessed by exposing them for 6 h to serum peptidases in a fetal bovine serum solution^68, 69 (FIG. 5a and Table S4). The peptide degradation kinetics were calculated by integrating the peak area of the peak in relation to the peptide at the beginning of the experiment (time=0) and comparing it to the integrated peak area relative to the peptides after exposure to the enzymes at time points: 0.5, 1, 2, 4, and 6 h (FIG. 5a and Table S4). […] However, AV was resistant to degradation against proteases, with almost 40% peptide content remaining after 4 h of exposure (FIG. 5a and Table S4). […] VP was almost entirely degraded after 30 min (22% of peptide remaining). […] D-amino acid substitutions have been used as alternatives to prevent the degradation of AMPs. For example, Qiu et. al. described a protonectin analog with a D-Lys residue in position 10 as an alternative to protonectin; this analog is not degraded and has higher antimicrobial activity against bacteria and fungi than the original peptide.
Methods. Stability assays were performed following the protocol described by Torres et al.^71. Briefly, a peptide solution was added to GIBCO fetal bovine serum diluted to 25% in water and kept at 37° C. The degradation kinetics were monitored by liquid chromatography and the percentage of peptide remaining was calculated by integrating the peptide peak area. The experiments were performed as three independent replicates, and aliquots were taken at 0, 0.5, 1, 2, 4, and 6 h.

[5] = bovine, fetal bovine serum, 25% in water
[6] = bovine, fetal bovine serum, 25% in water, 4 h

SLGALINVLKSGG-NH2 [DV, Ser-Leu-Gly-Ala-Leu-Ile-Asn-Val-Leu-Lys-Ser-Gly-Gly]
P. gallinaceum (% sporozoites at 0.8 μmol L^−1) [1]: 31% | antiplasmodial activity [1]: did not exhibit significant antiplasmodial activity; also recorded: did not present antiplasmodial activity | MIC C. albicans MDM8 (C. albicans MDM8): >50 µM | MIC S. marcescens ATCC 4112 (S. marcescens ATCC 4112): >50 µM | MIC E. cloacae β-12 (E. cloacae β-12): >50 µM | Hemolytic activity, concentration of peptide needed to kill 10% of red blood cells (human erythrocytes): 0.1 µmol/L | MHC (human erythrocytes): 0.1 µmol/L | Helical fraction (fH) PBS [2]: 0.12 | Helical fraction (fH) POPC [2]: 0.08 | Helical fraction (fH) POPC:DOPE [2]: 0.11 | Helical fraction (fH) POPC:POPG [2]: 0.41 | Helical fraction (fH) SDS [2]: 0.62 | Helical fraction (fH) TFE/Water [2]: 0.90 | Helical fraction (fH) Water [2]: 0.11 | MIC C. tropicalis IOC 4560 (C. tropicalis IOC 4560): >50 µM | MIC B. megaterium ATCC 10778 (B. megaterium ATCC 10778): >50 µM | antimicrobial activity (bacterial strains): No antimicrobial activities were observed; also recorded: did not exhibit antimicrobial activity | MIC S. epidermidis ATCC 12228 [3]: >50 µM | MIC M. luteus A270 (M. luteus A270): >50 µM | remaining at 0.5 h [4, 5]: ~50% | remaining at 1 h [4, 5]: ~50% | remaining at 2 h [4, 5]: ~50% | remaining at 4 h [4, 6]: ~50% | remaining at 6 h ([4]; bovine, fetal bovine serum, 25% in water, 6 h, read-out: remaining peptide, 6 h): ~50%

GLGALLNVIKSGL-NH2 [AV, Gly-Leu-Gly-Ala-Leu-Len-Asn-Val-Ile-Lys-Ser-Gly-Leu]
P. gallinaceum (% sporozoites at 0.8 μmol L^−1) [1]: 90% | antiplasmodial activity [1]: exhibited antiplasmodial activity | MIC C. albicans MDM8 (C. albicans MDM8): 50 µM | MIC S. marcescens ATCC 4112 (S. marcescens ATCC 4112): 50 µM | MIC E. cloacae β-12 (E. cloacae β-12): >50 µM | hemolytic activity (human erythrocytes; 0.1 to 100 μmol L^−1): minimal hemolytic activity | Hemolytic activity, concentration of peptide needed to kill 10% of red blood cells (human erythrocytes): 100 µmol/L | MHC (human erythrocytes): >100 µmol/L | Helical fraction (fH) PBS [2]: 0.05 | Helical fraction (fH) POPC [2]: 0.03 | Helical fraction (fH) POPC:DOPE [2]: 0.08 | Helical fraction (fH) POPC:POPG [2]: 0.04 | Helical fraction (fH) SDS [2]: 0.31 | Helical fraction (fH) TFE/Water [2]: 0.42 | Helical fraction (fH) Water [2]: 0.08 | MIC C. tropicalis IOC 4560 (C. tropicalis IOC 4560): 50 µM | MIC B. megaterium ATCC 10778 (B. megaterium ATCC 10778): >50 µM | antimicrobial activity (bacterial strains): lower antimicrobial activities than the corresponding template peptides | MIC S. epidermidis ATCC 12228 [3]: >50 µM | MIC M. luteus A270 (M. luteus A270): 6.3 µM | remaining at 0.5 h [4, 5]: ~40% | remaining at 1 h [4, 5]: ~40% | remaining at 2 h [4, 5]: ~40% | remaining at 4 h [4, 6]: ~40% | remaining peptide, 4 h ([4]; 4 h): ~40%
